This is an account of results in patent publication US11207331B2, “Agents, compositions and methods for enhancing neurological function” (University of Southern California, priority 2007, dated 2021).

“Also recorded” adds a separate entry of the source.

For assay [1], the system named is BrdU positive cells per hippocampus. Nature of the assay: Survival of BrdU labeled cells in hippocampus after behavioural testing. The assay is classed as in vivo, mouse. The protocol:
(§1) Mice of each genotype and age received a subcutaneous (s.c.) injection of THP at a concentration of 10 mg/kg body weight (BW), an optimal dose of THP-[…] based on our previous studies. One hour after THP injection, mice were intraperitoneally (i.p.) injected with 100 mg/kg BW bromodeoxyuridine (BrdU). Two experimental paradigms were used: 1) THP treatment for behavior and cell survival assessment, in which animals received a single shot of THP/vehicle, followed by a 7-day neurogenesis and migration phase, followed by a 5-day trace-conditioning test followed 9 days later by a 1-day memory test, and scarified 21 days after a single THP injection at which time FACS analysis of BrdU positive cells was performed to assess cell survival; 2).
Hippocampus was dissected from the fixed hemispheres from cell survival assessment experiment using consistent anatomical landmarks as criteria for dissection as described in the literature. The rostral ⅓ of the hippocampus lobe was removed to avoid the subventricular zone and rostral migratory stream proliferative pools. The extracted hippocampi were homogenized using Next advance 24 sample homogenizer (Next Advance Inc., NY) for 3 minutes on speed 7. This procedure lyses the plasma lemma while preserves the nuclear envelope intact. The nuclei sample was collected into a regular 1.5 mL microcentrifuge tube by washing the beads and tube 4 times using 200 μL of PBS, and then centrifuged for 10 minutes at 10,000 rpm. Once all of the nuclei were collected in a pellet, the supernatant was discarded. The pellet was then re-suspended in 600 μL of PBS plus 0.5% Triton x-100. The number of nuclear density was estimated by counting the propidium iodide (PI), a fluorescent molecule stoichiometrically binds to DNA by intercalating between the bases with no sequence preference, positive particles. Aliquots of 25 μl were re-suspended in 200 μL of a 0.2 M solution of boric acid, pH 9.0, and heated for 1 h at 75° C. for epitope retrieval. After washed in PBS, the nuclei were incubated for 24 hours at 4° C. with primary mouse monoclonal anti-BrdU antibody (1:100, Abcam, Ab12219) and subsequently with FITC-conjugated goat anti-mouse IgG secondary antibody (1:100 in PBS; Vector Labs, FI-2001). The remainder of cell suspension is diluted to 500 μL and sent for flow cytometry assay using Beckman FC 500 System with CXP Software. Propidium iodide (PI) cells were first gated on a histogram; the expressing cells were visualized on a forward/side scatter plot. PI cells were ‘back-gated’ on the forward/side scatter plot to eliminate debris prior to analysis; this also eliminated auto fluorescence of the sample. Gates were always set using dissociates with cell aliquots which lack of the first antibody, but which were incubated with second antibody and processed alongside the experimental procedure. PI-labeled cells in a fixed volume were gated, and the number of cells showing BrdU signal was analyzed. Data were expressed as total positive cells per hippocampus.
To determine whether cognitive performance was correlated with survival of neuroprogenitor cells, hippocampi from behavioral test animals were analyzed for total number of BrdU positive cells using fluorescence activated cell sorting (FACS). As BrdU was administered one hour post THP injection at the start of the behavioral experiment, FACS analysis detected the total number of surviving BrdU+ cells and thus can be used as a marker of neural progenitor cells that survived and integrated into the hippocampal neuronal network. In 6-months-old vehicle treated non-Tg mice, BrdU+ cell survival was 2003.6±229.5.
We sought to determine whether cell survival was directly attributable to THP exposure or whether cell survival was dependent on the training experience. Thus, the relationship between survival of BrdU positive cells and cognitive performance on the memory phase of the behavioral testing was analyzed. […]
(Incorporation of labelled thymidine or its analogues reports DNA synthesis.)

The subject of assay [2] is mouse dentate gyrus subgranular zone (SGZ). Description: Unbiased stereology of BrdU-positive cells in dentate gyrus subgranular zone. The assay is classed as in vivo. Conditions: for cell proliferation (normal BrdU+ cells) / pyknotic BrdU+ cell count after THP treatment: 24 hr; for pyknotic BrdU+ cell count after THP treatment: 6-months, 10 mg/kg s.c. As to the method: as §1
Acute THP treatment for cell proliferation assessment, in which animals received a single injection of THP/vehicle and were sacrificed 24 hr later followed by quantitative unbiased stereology of BrdU positive cells.
Mice were sacrificed 24 h after THP administration for cell proliferation assessment or at the end of memory test for cell survival assessment. On the day of sacrifice mice were deeply anesthetized with a combination of ketamine (100 mg/kg) and xylazine (10 mg/kg), and perfused with PBS. Brains were dissected into two hemispheres, and one hemisphere was fixed immediately in cold 4% paraformaldehyde and was used for either stereological analysis (cell proliferation) or FACS analysis (cell survival).
The fixed hemispheres from cell proliferation assessment experiment were sectioned into a series of 40 μm coronal sections and every sixth section in the series was processed for BrdU histolabeling by NeuroScience Associates (Knoxville, Tenn.). Prior to labeling, all slides were coded and the codes were not broken until analyses were completed. The number of BrdU labeled cells was determined by unbiased stereology (optical dissector). Systematic samplings of unbiased counting frames of 50 μm on a side with a 200 μm matrix spacing were produced using a semiautomatic stereology system (Zeiss Axiovert 200M fluorescent microscope as part of the 3iMarianas digital microscopy and a 60×SPlan apochromat oil objective (1.4 numerical aperture). Positive cells that intersected the uppermost focal (exclusion) plane and those that intersected the exclusion boundaries of the unbiased sampling frame were excluded from analysis. Cells that met analysis criteria through a 20 μm axial distance were counted according to the optical dissector principle. The granule cell layer reference volume was determined by summing the traced SGZ, granule cell areas for each section multiplied by the distance between sections sampled. The mean granule cell number per dissector volume was multiplied by the reference volume to estimate the total granule cell number. The stereologically determined number of BrdU-positive cells was related to the granule cell layer sectional volume and multiplied by the reference volume to estimate the total number of BrdU-positive cells.
Total BrdU labeled cells were quantified for 3, 6, 9, and 12 months non-Tg and 3×TgAD male mice. The serial brain sections were collected to analyze the effects of THP on BrdU incorporation by unbiased stereological analysis. Data are represented as mean±SEM (n≥4 in each group). […] PCNA, an S-phase cell cycle marker, was increased in THP compared to vehicle control in 3×TgAD mice in three month (FIG. 12B) and six month (FIG. 12C) mice as shown by immunoblot.
To decipher the THP effect in neurogenesis, cell proliferation assessment experiments were conducted. Following animal sacrifice and brain section staining, unbiased stereology was conducted in both non-Tg and 3×TgAD mice at three different ages.

Another assay has as its system SVZ from 3×TgAD mice. Description: Unbiased stereology of BrdU-positive cells in subventricular zone. The class given is in vivo, mouse. As to conditions: 10 mg/kg.

As for `CC(=O)[C@H]1CC[C@H]2[C@@H]3CC[C@H]4C[C@H](O)CC[C@]4(C)[C@H]3CC[C@]12C` [THP, 3α-hydroxy-5α-pregnan-20-one], the “THP-induced proliferation (FACS BrdU) after 23 days of learning and memory” value in assay [1] (3×TgAD mice, 3 and 6 month, declined with age thereafter) is recorded as “Significant THP-induced proliferation”. Besides, in assay [1] (3×TgAD mice, 6-months-old), the “fold promotion of BrdU+ cell survival” value is listed as “greater than 2 fold”. The “surviving BrdU+ cells per hippocampus (FACS)” value in assay [1] (3×TgAD mice, 6-months-old, 21 days after 10 mg/kg) worked out at 1372.5±326.2; in assay [1] (3×TgAD mice, 9-months-old), 899.3±313.1; in assay [1] (non-Tg mice, 6-months-old, 21 days after 10 mg/kg), 2772.2±534.9; in assay [1] (non-Tg mice, 9-months-old), 2255.3±662.4. The BrdU cells in assay [1] (3×TgAD mice, survived BrdU cells) was determined as 1088. Further, the “number of surviving cells generated 20 days prior to sacrifice” value in assay [1] (3×TgAD mice, unbiased stereological analysis) is given as “near doubling in the number of surviving cells”. In addition, the “BrdU+ cell survival vs vehicle” value in assay [1] (12-months-old non-tg and 3×TgAD mice) was “no significant effect”. In addition, in assay [1] (Non-Tg mice, 3, 6, 9, 12 month), the “BrdU positive cells, treatment vs vehicle” value was “did not show statistical significance between treatment and vehicle groups”. For the same compound, the “BrdU+ cell number 21 days after THP administration” value in assay [1] (all ages) is given as “an increase in BrdU+ cell number was observed at all ages”. Moreover, the “increase in BrdU incorporation vs vehicle control group” value in assay [2] (3×TgAD mice, 3 months, 10 mg/kg BW s.c., 24 hours) is 55+18%. In addition, the “cell proliferation (normal BrdU+ cells)” value is “no significant effect in cell proliferation” in assay [2] (3×TgAD mice, 6, 9, 12 months) and “no effect on cell proliferation” in assay [2] (non-Tg mice, 6, 9, 12 months). Besides, the “pyknotic BrdU+ cell count after THP treatment” value in assay [2] (3×TgAD mice) was found to be 48.0±48.00; in assay [2] (non-Tg mice), 576.0±185.49. In assay [2] (3×TgAD mice, one s.c. dose, 24 hours), the “neurogenic deficit of 3×TgAD mice vs non-Tg (total BrdU cells)” value was “restored proliferation to that of normal nontransgenic mice; also recorded: reversed the neurogenic deficit of the 3×TgAD mouse SGZ and restored normal levels of neurogenesis”. Moreover, the “pyknotic cell population, vehicle vs THP” value in assay [2] (non-Tg and 3×TgAD mice, 9- and 12-months) is “no difference”. In addition, the “increase in BrdU-positive cells relative to untreated group” value in the assay on SVZ from 3×TgAD mice was found to be 58%.
